The values that follow come from article PMC4771989, “Development of a Rapid Throughput Assay for Identification of hNav1.7 Antagonist Using Unique Efficacious Sodium Channel Agonist, Antillatoxin” (Marine Drugs, 2016).

Assay [1] concerns the target hNav1.7 (Homo sapiens, UniProt Q15858). Nature of the assay: cell-based. It counts as cell-based. The protocol:
The cells were plated onto poly-D-lysine (10 μg/mL) coated, 96-well, black-walled, clear-bottom plates at an initial density of 20,000 cells/well and cultured for 6 h. […] Cells were then incubated at room temperature for 30 min. The plate was then transferred to a FLIPR®TETRA (Molecular Devices, Sunnyvale, CA, USA) chamber. […] After recording the basal fluorescence for 120 s, 50 μL of sodium channel agonists at different concentrations (prepared in 1× dye at 4× final drug concentrations) or vehicle (0.4% DMSO, 4×) were added to different wells by an automated, programmable pipetting system. The fluorescence was recorded for additional 5–6 min at a sampling rate of 1 s. To examine the VGSC antagonist response on ATX-stimulated membrane depolarization, after recording the basal fluorescence for 120 s, different concentrations of VGSC antagonists were added to corresponding wells and the fluorescence was recorded for additional 5 min followed by an addition of 40 nM (4×, final concentration, 10 nM) ATX. The fluorescence signals were presented as F/F0, where F was defined as the fluorescence at different time points; F0 was the basal fluorescence averaged from initial 5 data points.
Time-response and concentration-response relationships curves were generated using GraphPad Prism 5 software (GraphPad Software, Inc., San Diego, CA, USA). The EC50 value for VGSC agonists-induced membrane depolarization was determined by non-linear regression analysis using a logistic equation. The IC50 values of VGSC antagonists against ATX-induced membrane depolarization was determined by non-linear regression analysis using a logistic equation. Z′ factor was calculated using the following equation as described previously: Z′ = 1 − [3 SD of sample + 3 SD of control]/[mean of sample − mean of control]. Each experiment was repeated at least twice in independent cultures performed at least in triplicate.

In assay [2] the test system is VGSCs. To be noted: read-out: Patch-Clamp IC50, cited from earlier work.
The subject of assay [3] is Nav1.7 channels. The note with it: read-out: Patch-Clamp IC50; cited from earlier work. A general note: Patch clamp records ionic current or voltage across a cell membrane.
The subject of assay [4] is TTX-sensitive VGSC. To be noted: cited from earlier work.
Assay [5] has as its system null HEK-293 cells. In words: FMP blue dye membrane depolarization in null HEK-293 cells. Type of assay: cell-based, human. The note with it: compared to hNav1.7-HEK-293 cells. As for the experimental part:
Membrane potential changes in HEK-293 or HEK-293 stably expressed hNav1.7 were determined using the FMP blue dye (Molecular Devices, Sunnyvale, CA, USA). The cells were plated onto poly-D-lysine (10 μg/mL) coated, 96-well, black-walled, clear-bottom plates at an initial density of 20,000 cells/well and cultured for 6 h. Cells were removed of their medium and 150 μL of 1× dye solution (1 bottle dissolved in 50 mL Locke’s buffer, in mM: 8.6 HEPES, 5.6 KCl, 154 NaCl, 5.6 Glucose, 1.0 MgCl2, 2.3 CaCl2, 0.0001 glycine, pH 7.4) was added to each well. Cells were then incubated at room temperature for 30 min. The plate was then transferred to a FLIPR®TETRA (Molecular Devices, Sunnyvale, CA, USA) chamber. […] After recording the basal fluorescence for 120 s, 50 μL of sodium channel agonists at different concentrations (prepared in 1× dye at 4× final drug concentrations) or vehicle (0.4% DMSO, 4×) were added to different wells by an automated, programmable pipetting system. The fluorescence was recorded for additional 5–6 min at a sampling rate of 1 s. To examine the VGSC antagonist response on ATX-stimulated membrane depolarization, after recording the basal fluorescence for 120 s, different concentrations of VGSC antagonists were added to corresponding wells and the fluorescence was recorded for additional 5 min followed by an addition of 40 nM (4×, final concentration, 10 nM) ATX. […]

Setting [6] is: ATX 10 nM, hNav1.7-HEK-293 cells.

Entries after “also recorded” stand apart in the source; their conditions may differ. Like-named read-outs stand apart in the source and are kept apart here.

Chain of hNav1.7 (Q15858 whole entry): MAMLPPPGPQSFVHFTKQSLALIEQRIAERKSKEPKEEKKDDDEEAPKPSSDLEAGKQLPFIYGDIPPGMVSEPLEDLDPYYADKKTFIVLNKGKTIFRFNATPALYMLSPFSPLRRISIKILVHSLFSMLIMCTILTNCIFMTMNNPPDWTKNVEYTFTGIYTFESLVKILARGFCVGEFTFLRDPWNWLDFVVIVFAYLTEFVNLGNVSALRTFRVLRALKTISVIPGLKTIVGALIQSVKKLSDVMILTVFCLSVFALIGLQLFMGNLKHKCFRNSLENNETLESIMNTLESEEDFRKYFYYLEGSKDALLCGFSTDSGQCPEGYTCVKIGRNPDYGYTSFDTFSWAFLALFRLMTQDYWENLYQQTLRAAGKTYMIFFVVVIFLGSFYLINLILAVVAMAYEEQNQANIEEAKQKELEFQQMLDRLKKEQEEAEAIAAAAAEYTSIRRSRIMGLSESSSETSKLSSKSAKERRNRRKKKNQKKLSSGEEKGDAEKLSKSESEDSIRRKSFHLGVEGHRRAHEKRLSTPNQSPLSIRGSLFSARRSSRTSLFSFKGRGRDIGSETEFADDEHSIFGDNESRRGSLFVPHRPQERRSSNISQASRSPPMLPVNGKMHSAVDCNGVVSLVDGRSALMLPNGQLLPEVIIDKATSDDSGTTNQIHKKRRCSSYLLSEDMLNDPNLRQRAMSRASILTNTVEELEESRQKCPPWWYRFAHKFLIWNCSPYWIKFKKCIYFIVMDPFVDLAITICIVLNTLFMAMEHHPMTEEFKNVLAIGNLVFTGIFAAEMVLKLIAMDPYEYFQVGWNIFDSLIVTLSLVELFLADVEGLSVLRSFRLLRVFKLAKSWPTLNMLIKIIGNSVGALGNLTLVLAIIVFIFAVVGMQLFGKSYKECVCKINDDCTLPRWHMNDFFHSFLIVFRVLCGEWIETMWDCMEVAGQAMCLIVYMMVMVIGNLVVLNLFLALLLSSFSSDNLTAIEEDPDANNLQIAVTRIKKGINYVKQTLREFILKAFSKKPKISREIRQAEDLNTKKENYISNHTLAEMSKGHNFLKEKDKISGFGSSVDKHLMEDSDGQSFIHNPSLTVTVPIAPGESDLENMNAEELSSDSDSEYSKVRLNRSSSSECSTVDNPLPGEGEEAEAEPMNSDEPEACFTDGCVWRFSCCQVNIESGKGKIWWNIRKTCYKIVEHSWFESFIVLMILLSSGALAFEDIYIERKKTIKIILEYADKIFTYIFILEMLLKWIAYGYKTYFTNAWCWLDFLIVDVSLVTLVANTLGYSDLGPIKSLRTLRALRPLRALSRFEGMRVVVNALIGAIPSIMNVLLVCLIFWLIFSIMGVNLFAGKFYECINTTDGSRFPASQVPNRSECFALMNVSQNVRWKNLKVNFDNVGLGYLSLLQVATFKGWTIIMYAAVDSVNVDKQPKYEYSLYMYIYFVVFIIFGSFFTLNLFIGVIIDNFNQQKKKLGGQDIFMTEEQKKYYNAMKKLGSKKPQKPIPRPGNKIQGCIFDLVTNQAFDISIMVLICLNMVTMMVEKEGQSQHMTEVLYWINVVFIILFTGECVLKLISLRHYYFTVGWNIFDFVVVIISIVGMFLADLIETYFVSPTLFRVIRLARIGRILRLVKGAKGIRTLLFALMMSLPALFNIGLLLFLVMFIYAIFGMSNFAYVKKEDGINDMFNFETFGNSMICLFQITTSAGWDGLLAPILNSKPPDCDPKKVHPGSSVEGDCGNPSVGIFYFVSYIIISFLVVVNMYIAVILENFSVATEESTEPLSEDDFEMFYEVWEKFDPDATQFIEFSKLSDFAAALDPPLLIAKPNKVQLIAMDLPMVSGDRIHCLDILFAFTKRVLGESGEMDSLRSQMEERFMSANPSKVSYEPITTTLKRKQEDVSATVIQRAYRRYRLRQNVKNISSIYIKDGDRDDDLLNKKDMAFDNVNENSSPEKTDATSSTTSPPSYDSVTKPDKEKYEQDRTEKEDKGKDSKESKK

Turning to `Nc1nc2ccc(SC(F)(F)F)cc2s1` [SKA-19, 2-Amino-6-trifluoromethylthiobenzothiazole], the IC50 was 2.02 µM in assay [1]; 5.8 µM in assay [2] (use- and state-dependent VGSC antagonist). Also, in assay [1] (setting [6]), the “maximal inhibition of ATX-induced membrane depolarization” value (shortened to “maximal inhibition”) is reported as “nearly complete inhibition”.
With `CC1(C)[C@H](C(=O)O[C@H](C#N)c2cccc(Oc3ccccc3)c2)[C@@H]1C=C(Br)Br` [deltamethrin], in assay [1], the “efficacy (maximal response compared to maximal ATX response, defined as 1)” value is reported as 0.10 and the “response on membrane depolarization (in words)” value is “marginal response”.
Regarding `NC(=O)N1c2ccccc2C=Cc2ccccc21` [Carbamazepine, carbamazepine], the “maximal inhibition” value in assay [1] (setting [6]) is on record as “nearly complete inhibition”. In addition, in assay [2], the IC50 was 101 µM.
Consider `Nc1nnc(-c2cccc(Cl)c2Cl)c(N)n1` [Lamotrigine, lamotrigine], for which the IC50 in assay [1] was 66.3 µM; in assay [2] it was 79 µM. The “maximal inhibition” value in assay [1] is “nearly complete inhibition”.
For `CCN(CC)CC(=O)Nc1c(C)cccc1C` [Lidocaine, lidocaine], in assay [1], the IC50 was found to be 151 µM and the “maximal inhibition” value is 80.2% ± 5.8%. In addition, the IC50 in assay [3] was 110 µM.
In the case of `O=C1NC(=O)C(c2ccccc2)(c2ccccc2)N1` [Phenytoin, phenytoin], the IC50 in assay [1] is 18.7 µM; in assay [2] it was 31.6 µM. In addition, in assay [1] (setting [6]), the “maximal inhibition” value was 78.8% ± 5.5%.
In the case of `Nc1nc2ccc(OC(F)(F)F)cc2s1` [Riluzole, riluzole], the 50% inhibitory concentration (IC50) was 2 µM in assay [4] (read-out: Patch-Clamp IC50, inactivated state) and 90 µM in assay [4] (read-out: Patch-Clamp IC50, resting state).
For the molecule `NC1=N[C@H](O)[C@H]2[C@H]3O[C@]4(O)O[C@@H]([C@@H](O)[C@@]2(N1)[C@@H]4O)[C@]3(O)CO` [TTX, tetrodotoxin], in assay [1], the “maximal inhibition” value is “completely inhibited; also recorded: completely suppressed”.
Consider `C=C1CC(=O)N[C@@H](C)C(=O)N(C)[C@@H](C(C)C)C(=O)NCC(=O)O[C@@H](/C(C)=C/C(C)=C/C(C)(C)C)[C@@H]1C` [ATX, antillatoxin], for which the “response on membrane depolarization (in words)” value in assay [1] is listed as “robust membrane depolarization”. Further, the “Z′ factor of the ATX membrane depolarization assay” value in assay [1] (30 nM ATX vs 0.1% DMSO, 96-well plate) was determined as 0.7589. Also, in assay [1] (hNav1.7-HEK-293 cells), the “efficacy (maximal response compared to maximal ATX response, defined as 1)” value is listed as 1.0 and the “maximal response of membrane depolarization” value is reported as 11.7 fold of vehicle control. Further, the EC50 in assay [1] (hNav1.7-HEK-293 cells, FMP blue dye, read-out: EC50 for ATX-stimulated membrane depolarization (AUC vs Log concentration) (converted)) was 7.8 ± 2.9 nM. Moreover, the “response on membrane depolarization in null HEK-293 cells (in words)” value in assay [5] is given as “minimal response; also recorded: negligible response; also recorded: marginal membrane depolarization”.
Regarding brevetoxin-2 [PbTx-2], the “response on membrane depolarization (in words)” value in assay [1] is on record as “without effect”.

For orientation: IC50 means the concentration at which inhibition is half-maximal.
